Our source for the TGI values is PubChem BioAssay (NCI).

Some test systems named below: RXF-631 renal; MDA-N; NCI/ADR-RES ovarian; PC-3 prostate; T-47D breast.
Holding throughout (assay): DTP human tumour cell line panel, 48 h

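Values below derive from 48-hour exposures of cells grown in 96-well plates, with endpoints linearly interpolated between the two concentrations bracketing the appropriate inhibition level. TGI is the concentration that stops growth completely.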 Where only a bound is given, the exact number is not on record here.

As to `Cc1cccc(C)c1NC(=O)CCc1nnc2s/c(=C\c3ccc(N(C)C)cc3)c(=O)n12`, the TGI – broadly, the concentration at which net growth stops – in the assay with RXF-631 renal is > 100 µM.
In the case of `N#Cc1c(-c2ccccc2)cc(-c2ccc(N)cc2)[nH]c1=O`, the TGI in the assay on RXF-631 renal was > 100 µM.
Regarding `CCOC(=O)C1C=C2O[C@@H]3OC4(CCCCC4)O[C@@H]3C2C2C(=O)CCC(=O)[C@@]12C(=O)OC` (stereo not given in full), in the assay with RXF-631 renal, the total growth inhibition concentration (TGI) was > 100 µM.
For `CCCCC(C)/C=C/C(=O)C1=C(O)/C(=C/C(=O)O)OC1=O` (stereo not given), the TGI in the assay with RXF-631 renal was > 100 µM.
`CC(C)c1ccc(C2NC(=S)NC3=C2c2ccccc2C3=O)cc1` (stereo not given): the TGI is 20.6 µM in the assay on MDA-N; 33.3 µM with NCI/ADR-RES ovarian; 23.5 µM in the assay with PC-3 prostate; > 100 µM with RXF-631 renal; 35.5 µM with T-47D breast.
As to `Cn1c(=O)nc2n(-c3ccc(Cl)cc3)c(-c3ccccc3)c(-c3ccccc3)nc-2c1=O`, in the assay on RXF-631 renal, the TGI was > 100 µM.
Same read-out and setting: then `Cc1cccc(C)c1NC(=O)CCC/C(CC(=O)c1ccc(F)cc1)=N\NC(=O)C(=O)NN`, with > 100 µM; and `O=c1c2ccccc2[nH]c2c(O)ccc(O)c12`, with 51.5 µM.
Turning to `CN(C)CCC(/C=C/c1ccccc1)=N\Nc1ccc(Cl)c(Cl)c1`, the TGI with RXF-631 renal amounted to 6.73 µM.
Turning to `CCOC(=O)C(=O)Nc1cc(Cl)c(Cl)cc1Cl`, the TGI in the assay on RXF-631 renal is > 100 µM.
As to `C/C(=N\NC(=O)C[N+](C)(C)C)c1sc(-c2cccnc2)nc1C`, the TGI with RXF-631 renal was > 100 µM.
`CC1=CC(C)(c2c[nH]c3ccccc23)CC(C)(C)c2c1[nH]c1ccccc21` (stereo not given): the TGI in the assay on RXF-631 renal came to 31.8 µM.
Consider `CCCCCCCCOCC(O)CO` (stereo not given), for which the TGI in the assay with RXF-631 renal is > 100 µM.
Turning to `CCc1cccc(C(C)C)c1NC(=O)CCl`, the TGI in the assay on RXF-631 renal was 37.4 µM.
Turning to `CCOc1ccccc1NC(=O)C(=O)C(/C(=N/N)C(=O)OC)c1nc2ccc([N+](=O)[O-])cc2[nH]c1=O` (stereo not given), the TGI in the assay with MDA-N, with NCI/ADR-RES ovarian, in the assay on PC-3 prostate and with T-47D breast was > 100 µM in each case.
For `O=C1N2Cc3c4ccc5c3CN3C(=O)N6Cc7c(ccc(c7CN1C6(c1ccccc1)C23c1ccccc1)OCCOCCOc1cc(Br)c(Br)cc1OCCOCCO4)OCCOCCOc1cc(Br)c(Br)cc1OCCOCCO5` (stereo not given), the TGI with RXF-631 renal was > 100 µM.
The same measure, in the same setting: then `C/C(=N\NC(N)=S)c1ccc(C)c(C)c1`, with > 100 µM.
Regarding `O=c1[nH]c2cc([N+](=O)[O-])ccc2nc1/C(=N/Nc1ccccc1)C(O)c1ccco1` (stereo not given), the TGI in the assay with RXF-631 renal was > 100 µM.
In turn, `N#Cc1ccc(/C=C(/C(=O)c2ccccc2)c2ccccc2)cc1` came in with a TGI with RXF-631 renal of 29.8 µM.
For the compound `O=C(O)C1CC=CCC1C(=O)Nc1cccc(O)c1` (stereo not given), the TGI in the assay with MDA-N, with NCI/ADR-RES ovarian, in the assay on PC-3 prostate and in the assay with T-47D breast was > 100 µM in each case.
